How the values were obtained:
[1] = test system: S. aureus Newman; experiment: fitness (endpoint OD595 vs no drug) (fraction); higher = more growth
Method in brief: (§1)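 Growth medium was TSB, LB Lennox or CY, and plates were kept at 37 °C. Inoculation was at OD595 0.01 in 384-well plates, at 30 µl per well or 55 µl for S. pneumoniae. OD595 was monitored every 30 min for 14 h and background-subtracted using the first reading. Fitness is the optical density on entering stationary phase divided by the robust mean of no-drug controls, with values capped at 1.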

[2] = test system: S. aureus DSM 20231; experiment: as above
Method in brief: as §1

[3] = test system: B. subtilis 168; experiment: as above
Method in brief: as §1

[4] = test system: S. pneumoniae D39V; experiment: as above
Method in brief: as §1

[5] = test system: S. aureus Newman; experiment: Bliss interaction score (quartile over a dose matrix) (fitness difference); higher = more antagonism (negative = synergy)
Method in brief: (§2)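 The Bliss score is observed minus expected fitness, where expected fitness is the product of the single-drug fitness values inferred from the combination data. Fitness is the OD595 at the onset of stationary phase over the plate's robust no-drug mean, capped at 1. Scores are summarised by quartiles over technical, biological and donor/recipient replicates.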

[6] = test system: S. aureus DSM 20231; experiment: as above
Method in brief: as §2

[7] = test system: B. subtilis 168; experiment: as above
Method in brief: as §2

[8] = test system: S. pneumoniae D39V; experiment: as above
Method in brief: as §2
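Wherever Bliss interaction score (quartile over a dose matrix) is given: first quartile when negative (synergy) and third quartile when positive (antagonism).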
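Wherever fitness (endpoint OD595 vs no drug) is given: OD595 on entry to stationary phase over no-drug wells; at most 1.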

Cc1ncc([N+](=O)[O-])n1CCO [Metronidazole] + CC1=C\[C@@H](O)CC(=O)Cc2nc(co2)C(=O)N2CCC=C2C(=O)O[C@H](C(C)C)[C@H](C)/C=C/C(=O)NC\C=C\1 [Virginiamycin M1]
Settings | fitness
[1], first compound 0.625 µg/mL, partner 0.0625 µg/mL | 0.97
[1], first compound 0.625 µg/mL, partner 0.125 µg/mL | 0.973
[1], first compound 0.625 µg/mL, partner 0.25 µg/mL | 0.975
[1], first compound 1.25 µg/mL, partner 0.0625 µg/mL | 0.984
[1], first compound 1.25 µg/mL, partner 0.125 µg/mL | 0.993
[1], first compound 1.25 µg/mL, partner 0.25 µg/mL | ≥ 1
[1], first compound 2.5 µg/mL, partner 0.0625 µg/mL | 0.992
[1], first compound 2.5 µg/mL, partner 0.125 µg/mL | ≥ 1
[1], first compound 2.5 µg/mL, partner 0.25 µg/mL | 0.991
[2], first compound 0.625 µg/mL, partner 0.0625 µg/mL | ≥ 1
[2], first compound 0.625 µg/mL, partner 0.125 µg/mL | ≥ 1
[2], first compound 0.625 µg/mL, partner 0.25 µg/mL | ≥ 1
[2], first compound 1.25 µg/mL, partner 0.0625 µg/mL | ≥ 1
[2], first compound 1.25 µg/mL, partner 0.125 µg/mL | ≥ 1
[2], first compound 1.25 µg/mL, partner 0.25 µg/mL | ≥ 1
[2], first compound 2.5 µg/mL, partner 0.0625 µg/mL | ≥ 1
[2], first compound 2.5 µg/mL, partner 0.125 µg/mL | ≥ 1
[2], first compound 2.5 µg/mL, partner 0.25 µg/mL | ≥ 1
[3], first compound 0.625 µg/mL, partner 0.0625 µg/mL | 0.995
[3], first compound 0.625 µg/mL, partner 0.125 µg/mL | 0.946
[3], first compound 0.625 µg/mL, partner 0.25 µg/mL | 0.956
[3], first compound 1.25 µg/mL, partner 0.0625 µg/mL | 0.951
[3], first compound 1.25 µg/mL, partner 0.125 µg/mL | 0.938
[3], first compound 1.25 µg/mL, partner 0.25 µg/mL | ≥ 1
[3], first compound 2.5 µg/mL, partner 0.0625 µg/mL | 0.929
[3], first compound 2.5 µg/mL, partner 0.125 µg/mL | 0.944
[3], first compound 2.5 µg/mL, partner 0.25 µg/mL | 0.96
[4], first compound 1.073 µg/mL, partner 0.5 µg/mL | ≥ 1
[4], first compound 1.073 µg/mL, partner 1 µg/mL | ≥ 1
[4], first compound 1.073 µg/mL, partner 2 µg/mL | ≥ 1
[4], first compound 1.25 µg/mL, partner 2 µg/mL | 0.944
[4], first compound 2.145 µg/mL, partner 0.5 µg/mL | 0.912
[4], first compound 2.145 µg/mL, partner 1 µg/mL | 0.945
[4], first compound 2.145 µg/mL, partner 2 µg/mL | 0.877
[4], first compound 2.5 µg/mL, partner 2 µg/mL | 0.94
[4], first compound 4.29 µg/mL, partner 0.5 µg/mL | ≥ 1
[4], first compound 4.29 µg/mL, partner 1 µg/mL | 0.994
[4], first compound 4.29 µg/mL, partner 2 µg/mL | ≥ 1
[4], first compound 5 µg/mL, partner 2 µg/mL | 0.946

fitness, one replicate
Settings | first compound 0.625 µg/mL | first compound 1.25 µg/mL | first compound 2.5 µg/mL | first compound 5 µg/mL
[1], partner 0.5 µg/mL | 0.902 | 0.899 | 0.89 | –
[1], partner 1 µg/mL | 0.912 | 0.922 | ≥ 1 | –
[1], partner 2 µg/mL | 0.919 | 0.919 | 0.949 | –
[2], partner 0.5 µg/mL | 0.825 | 0.842 | 0.978 | –
[2], partner 1 µg/mL | 0.725 | 0.827 | 0.908 | –
[4], partner 0.15 µg/mL | – | ≥ 1 | ≥ 1 | ≥ 1
[4], partner 0.3 µg/mL | – | ≥ 1 | 0.987 | 0.96
[4], partner 0.5 µg/mL | – | ≥ 1 | 0.973 | ≥ 1
[4], partner 1 µg/mL | – | ≥ 1 | ≥ 1 | ≥ 1

Settings | Bliss interaction score
[5] | 0.0634
[6] | 0.0516
[7] | -0.0294
[8] | 0.0226

COc1cccc2c1C(=O)c1c(O)c3c(c(O)c1C2=O)C[C@@](O)(C(=O)CO)C[C@@H]3O[C@H]1C[C@H](N)[C@H](O)[C@H](C)O1 [Doxorubicin] + Cc1ncc([N+](=O)[O-])n1CCO [Metronidazole]
fitness
Settings | first compound 0.25 µg/mL | first compound 0.5 µg/mL | first compound 0.625 µg/mL | first compound 1 µg/mL | first compound 1.25 µg/mL | first compound 2.5 µg/mL
[1], partner 0.625 µg/mL | – | – | 0.843 | – | 0.774 | 0.753
[1], partner 0.781 µg/mL | – | – | 0.761 | – | 0.765 | 0.75
[1], partner 1.25 µg/mL | – | – | 0.881 | – | 0.807 | 0.795
[1], partner 1.562 µg/mL | – | – | 0.76 | – | 0.793 | 0.751
[1], partner 2.5 µg/mL | – | – | 0.853 | – | 0.793 | 0.732
[1], partner 3.124 µg/mL | – | – | 0.76 | – | 0.806 | 0.76
[2], partner 0.625 µg/mL | – | – | 0.899 | – | 0.874 | 0.791
[2], partner 1.25 µg/mL | – | – | 0.972 | – | 0.974 | 0.84
[2], partner 2.5 µg/mL | – | – | 0.994 | – | 0.965 | 0.897
[3], partner 0.625 µg/mL | – | – | ≥ 1 | – | 0.964 | 0.74
[3], partner 1.25 µg/mL | – | – | 0.941 | – | 0.929 | 0.699
[3], partner 2.5 µg/mL | – | – | 0.937 | – | 0.956 | 0.653
[4], partner 1.073 µg/mL | 0.827 | 0.954 | – | 0.895 | – | –
[4], partner 1.25 µg/mL | 0.993 | ≥ 1 | – | 0.969 | – | –
[4], partner 2.145 µg/mL | 0.79 | 0.895 | – | 0.907 | – | –
[4], partner 2.5 µg/mL | ≥ 1 | ≥ 1 | – | 0.981 | – | –
[4], partner 4.29 µg/mL | 0.809 | 0.869 | – | 0.843 | – | –
[4], partner 5 µg/mL | 0.993 | 0.996 | – | 0.944 | – | –

Settings | Bliss interaction score
[5] | -0.0468
[6] | 0.0515
[7] | 0.0987
[8] | 0.0624
